The values below come from patent publication US11311568B2, “Therapeutic pharmaceutical composition for cancer including miRNA” (Purmx Therapeutics, Inc., priority 2017, dated 2022).

In data set [1] the test system is lung cancer cell strain (A549). Briefly: Cell growth inhibition, cell count after transfection. It is filed as cell-based. The note with it: A549, final concentration 10.0 nM, six days after transfection, FIG. 11. As to the method: miR-3140-3p was transfected into lung cancer cell strain (A549), and cell proliferation was observed. […] Transfection was carried out with the following protocol.
(§1) 1: To a 35 mm dish were added 500 μL of serum free medium (SFM) and 5 μL of RNAiMAX (Invitrogen).
2: To the solution from 1 was added 1 μL each of miR-Control or miR-3140-3p, miR-22-3p, and miR-34a-5p (stock conc. 20 μM) (final concentration 10.0 nM).
(§2) 3: This was incubated at room temperature for 20 minutes.
(§3) 4: 1.5 mL of a cell suspension diluted to 6.7×10^4 cells/mL was added to the 35 mm dish.
(§4) 5: This was incubated at 37° C. under 5% CO2 condition.
6: The cells were counted six days after transfection.

Data set [2] has as its system malignant pleural mesothelioma cells EHMES-10. Briefly: Antitumor effect in vivo, subcutaneous transplantation of EHMES-10 cells. Set-up: species or system SCID mouse. The note with it: SCID mice, EHMES-10 subcutaneous, 13 administrations. As to the method:
Malignant pleural mesothelioma cells EHMES-10 cells were used.
1: The cells on the dish were washed twice with PBS (-).
2: The cells were detached with trypsin.
3: This was suspended in a medium, and cells were counted.
4: Centrifugation at a condition of 1000 rpm for 3 min was performed to pellet down.
5: The cells were resuspended in PBS (-) in order to obtain 2.0×10^7 cells/mL.
Six weeks-old C-B-17/Icr-scid/scid Jcl (SCID mouse) were used as mice. SCID mice were subcutaneously administered 100 μL of the prepared cell suspension, and the cells were allowed to settle.
Negative control which is the control sequence and miR-3140-3p which is the miRNA of the present invention were employed. A6K (from 3D Matrix) was employed as the nucleic acid delivery reagent. The administration of miRNA to mice was carried out with the following protocol.
1: 100 μM of the nucleic acid (miRNA) was diluted with 10% saline and sterilized water in order to obtain 71.4 μM.
2: 1% A6K solution was sonicated for 5 minutes before use.
3: The diluted nucleic acid and the 1% A6K solution were mixed at a proportion of 1:1 to give the administration nucleic acid.
4: SCID mice were subcutaneously administered (tumor site) 50 μL each of the administration nucleic acid.
1: From two days after transplantation, the nucleic acid was administered every one or two days. […]

Data set [3] has as its system breast cancer stem cell strain (MDA-MB231-luc-D3H2LN cells). Briefly: Cell growth inhibition, cell count after transfection. It counts as cell-based. The note with it: final concentration 12.5 nM, four days after transfection, FIG. 10 top. As to the method:
miR-3140-3p was transfected in a highly metastatic cancer cell strain of breast cancer (MDA-MB231-luc-D3H2LN cells), and cell proliferation was observed. […] Transfection was carried out with the following protocol.
as §1
2: To the solution from 1 was added 12.5 μL each of miR-Control or miR-3140-3p, miR-22-3p, and miR-34a-5p (stock conc. 2 μM) (final concentration 12.5 nM).
as §2, §3, §4
(§5) 6: The cells were counted four days after transfection.

Data set [4] relates to large intestine cancer cell strain SW620. The data set is described as above. Conditions: SW620, final concentration 10.0 nM, seven days after transfection, FIG. 12. It is filed as cell-based. As to the method:
(§6) miR-3140-3p was transfected into large intestine cancer cell strains (SW620, SW480, and HT29), and cell proliferation was observed. Transfection was carried out with the following protocol.
as §1
(§7) 2: To the solution from 1 was added 12.5 μL each of miR-Control or miR-3140-3p, miR-22-3p, and miR-34a-5p (stock conc. 2 μM) (final concentration 10.0 nM).
as §2, §3, §4
(§8) 6: The cells were counted seven days after transfection.
(§9) Setting the number of control introduction cells as 100%, the survival rate of cells in which miR-3140-3p was introduced was shown in %.

The subject of data set [5] is large intestine cancer cell strain HT29. Described as above. It is filed as cell-based. Conditions: HT29, final concentration 10.0 nM, seven days after transfection, FIG. 12. On the procedure:
as §6, §1, §7, §2, §3, §4, §8, §9

For data set [6], the system named is large intestine cancer cell strain SW480. Described as above. The note with it: SW480, final concentration 10.0 nM, seven days after transfection, FIG. 12. It counts as cell-based. On the procedure:
as §6, §1, §7, §2, §3, §4, §8, §9

Data set [7] deals with uterine sarcoma cell strain MES-SA. The description is as above. It is filed as cell-based. Conditions: final concentration 10 nM, four days after transfection, FIG. 8. On the procedure: (§10) Among the above four miRNAs, miR-3140-3p which had particularly high cell growth inhibition effect was transfected in each of malignant pleural mesothelioma cell strains (MSTO-211H and EHMES-10), uterine sarcoma cell strain (MES-SA), and osteosarcoma cell strain (U2-OS), and cell proliferation was observed. […] Transfection was carried out with the following protocol.
as §1
(§11) 2: To the solution from 1 was added 1 μL each of miR-Control or miR-3140-3p, miR-22-3p, and miR-34a-5p (stock conc. 20 μM) (final concentration 10 nM).
as §2, §3, §4, §5

In data set [8] the test system is malignant pleural mesothelioma cell strain MSTO-211H. The data set is described as above. It is filed as cell-based. Conditions: final concentration 10 nM, four days after transfection, FIG. 6. As to the method:
as §10, §1, §11, §2, §3, §4, §5

For data set [9], the system named is malignant pleural mesothelioma cell strain EHMES-10. Described as above. It counts as cell-based. The note with it: EHMES-10, final concentration 10 nM, four days after transfection, FIG. 7. On the procedure:
as §10, §1, §11, §2, §3, §4, §5

The test system of data set [10] is osteosarcoma cell strain U2-OS. The description is as above. The note with it: final concentration 10 nM, four days after transfection, FIG. 9. It is filed as cell-based. As to the method:
as §10, §1, §11, §2, §3, §4, §5

Take “miR-3140-3p: Mature-miRNA, AGCUUUUGGGAAUUCAGGUAGU (SEQ ID NO. 2) (listed as RNA, chemistry not given here; listed as Homo sapiens)”: the “cell growth inhibition effect (cell count)” value in data set [1] was “extremely high cell growth inhibition effect”; in data set [3] it was “extremely high cell growth inhibition effect”; in data set [7], “extremely high cell growth inhibition effect compared to prior art miR-22-3p and miR-34a-5p”; in [8], “extremely high cell growth inhibition effect compared to prior art miR-22-3p and miR-34a-5p”; in [9] it was “extremely high cell growth inhibition effect compared to prior art miR-22-3p and miR-34a-5p”; in [10], “extremely high cell growth inhibition effect compared to prior art miR-22-3p and miR-34a-5p”. Moreover, the “tumor weight at endpoint compared to the control group” value in data set [2] (33 days after transplantation, FIG. 16) was “a similar result”. For the same substance, the “expansion of the tumor (luciferin imaging) compared to the control group” value in [2] (miRNA with A6K at tumor site, imaging at 12, 19, 26, 33 days, FIGS. 14-15) is listed as “expansion of the tumor was suppressed”. For the same substance, the “cell growth inhibition effect (survival rate of cells, control = 100%)” value in data set [4], in data set [5] and in [6] was “extremely high cell growth inhibition effect” in each case.
